In patent publication US20230203041A1, “ANTAGONISTS OF THE ADENOSINE A2A RECEPTOR” (AdoRx Therapeutics Limited, priority 2020, published 2023):
Counter-ions that a name gives are not always drawn.

Experiments:
[1] = biological target: T1, human Adenosine A2a receptor (Homo sapiens, UniProt P29274); assay: Adenosine receptor TR-FRET binding assay (CA200645 displacement), A2a; settings: 100 nM CA200645, CHO cell membranes, 2 hours at room temperature
T1 construct: expressed in transfected cells; host or cells: CHO cell membranes
T1 sequence (P29274 whole entry): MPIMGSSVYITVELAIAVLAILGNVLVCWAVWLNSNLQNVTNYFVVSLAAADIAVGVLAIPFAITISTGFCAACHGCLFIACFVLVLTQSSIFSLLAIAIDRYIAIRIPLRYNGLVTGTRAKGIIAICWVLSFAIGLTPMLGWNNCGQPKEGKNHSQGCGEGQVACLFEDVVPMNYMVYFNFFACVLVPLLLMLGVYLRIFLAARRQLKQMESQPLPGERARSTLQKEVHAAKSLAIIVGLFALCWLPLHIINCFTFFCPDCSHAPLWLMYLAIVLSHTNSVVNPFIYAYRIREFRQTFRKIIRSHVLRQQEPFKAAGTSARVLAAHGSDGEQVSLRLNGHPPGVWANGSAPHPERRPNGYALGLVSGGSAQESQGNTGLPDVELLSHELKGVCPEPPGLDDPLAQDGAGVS

[2] = biological target: T2, human Adenosine A3 receptor (Homo sapiens, UniProt P0DMS8); assay: Adenosine receptor TR-FRET binding assay (CA200645 displacement), A3
T2 sequence (P0DMS8 1-318): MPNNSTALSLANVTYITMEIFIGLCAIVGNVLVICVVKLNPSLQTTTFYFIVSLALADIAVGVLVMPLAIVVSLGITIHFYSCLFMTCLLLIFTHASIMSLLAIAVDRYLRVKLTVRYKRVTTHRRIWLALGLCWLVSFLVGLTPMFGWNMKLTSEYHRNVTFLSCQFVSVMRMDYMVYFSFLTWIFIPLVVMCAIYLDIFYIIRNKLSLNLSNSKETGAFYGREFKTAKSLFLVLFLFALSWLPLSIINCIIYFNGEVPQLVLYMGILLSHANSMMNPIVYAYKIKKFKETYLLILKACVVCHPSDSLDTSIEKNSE

[3] = biological target: T3, human Adenosine A1 receptor (Homo sapiens, UniProt P30542); assay: Adenosine receptor TR-FRET binding assay (CA200645 displacement), A1
T3 sequence (P30542 1-326): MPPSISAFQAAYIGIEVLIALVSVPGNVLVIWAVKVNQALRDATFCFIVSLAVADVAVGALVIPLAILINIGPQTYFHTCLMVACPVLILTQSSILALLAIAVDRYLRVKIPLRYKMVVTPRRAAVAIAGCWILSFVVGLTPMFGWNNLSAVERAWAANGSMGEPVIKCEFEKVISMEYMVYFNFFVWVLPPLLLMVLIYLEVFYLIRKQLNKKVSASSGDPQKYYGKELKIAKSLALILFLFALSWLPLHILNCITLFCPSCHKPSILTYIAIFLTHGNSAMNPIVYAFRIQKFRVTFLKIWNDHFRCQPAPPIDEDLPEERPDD
Description: (§1) All FRET binding experiments were conducted at room temperature in white 384-well plates, in assay binding buffer containing 1×LabMed (Cisbio, France), 100 μg/mL saponin, 1% DMSO and 0.02% pluronic acid. Binding of the fluorescently labelled Adenosine receptor antagonist XAC (CA200645, FRET acceptor) to terbium-labelled A1, A2a, A2b and A3 adenosine receptors (FRET donors) was detected by time-resolved FRET due to the close proximity of the donor and acceptor in a binding event. To investigate the ability of unlabelled test compounds to bind to Adenosine A1, A2a, A2b and A3 receptors, dose response curves were constructed that determined the ability of a range of concentrations to inhibit the binding of 30 nM CA200645 to the A2b receptor and 100 nM CA200645 to the A1, A2a, and A3 receptor.
(§2) Serial dilution (1:3 dilutions) of test compounds in neat DMSO and transfer of a 400 nL sample of test compound into the assay plate was carried out using the Mosquito (TTP Labtech, UK). The compound samples were incubated for 2 hours at room temperature with a fixed concentration of CA200645 defined for each receptor (see above) and CHO cell membranes containing the human Adenosine A1 (0.5 μg/well), A2a (0.3 μg/well), A2b (1 μg/well) or A3 (1 μg/well) receptor in 40 μL of assay buffer. Total and non-specific binding of CA200645 was determined in the absence and presence of 10 μM XAC, respectively. Following 2 hours incubation, the level of CA200645 binding was detected on a Pherastar FSX (BMG Labtech, Germany) using standard TR-FRET settings. The terbium donor was excited with three laser flashes at a wavelength of 337 nm, and donor and acceptor emission was detected at 620 nm and 665 nm wavelengths, respectively. FRET ratios were obtained by multiplying the acceptor/donor ratio value by 10,000. Specific binding was determined by subtracting the non-specific binding FRET ratio from the total binding FRET ratio. Compound IC50 curves were analysed using GraphPad Prism 7.0 (GraphPad, USA) and Ki affinity values were determined from the obtained IC50 values using the method of Cheng and Prusoff.

[4] = biological target: T4, human Adenosine A2b receptor (Homo sapiens, UniProt P29275); assay: Adenosine receptor TR-FRET binding assay (CA200645 displacement), A2b; settings: 30 nM CA200645, CHO cell membranes, 2 hours at room temperature
T4 construct: expressed in transfected cells; host or cells: CHO cell membranes
T4 sequence (P29275 1-332): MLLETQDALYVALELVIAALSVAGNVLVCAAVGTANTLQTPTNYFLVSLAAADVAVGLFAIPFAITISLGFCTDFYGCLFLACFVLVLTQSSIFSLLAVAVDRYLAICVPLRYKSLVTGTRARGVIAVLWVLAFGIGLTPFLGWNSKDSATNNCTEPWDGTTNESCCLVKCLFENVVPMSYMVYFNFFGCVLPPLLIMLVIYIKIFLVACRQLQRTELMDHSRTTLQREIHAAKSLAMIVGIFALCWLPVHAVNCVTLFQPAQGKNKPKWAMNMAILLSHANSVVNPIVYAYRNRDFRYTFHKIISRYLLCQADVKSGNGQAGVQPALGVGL
Description: as §1, §2

Compound | Ki [1] [nM] | Ki [2] [nM] | Ki [3] [nM] | Ki [4] [nM]
Fc1cccc(-c2nn3ccc(Cl)nc3c2Br)c1 [Example 68, 3-Bromo-5-chloro-2-(3-fluorophenyl)pyrazolo[1,5-a]pyrimidine] | 572 | > 1000 | – | –
c1ccc(CNc2ncn3nc(-c4ccco4)cc3n2)cc1 [Example 84, N-Benzyl-7-(2-furyl)pyrazolo[1,5-a][1,3,5]triazin-2-amine] | 160 | 231 | 389 | –
COC(=O)/C=C/c1c(-c2ccco2)nn2ccc(NCc3ccccc3)nc12 [Example 54, Methyl (E)-3-[5-(benzylamino)-2-(2-furyl)pyrazolo[1,5-a]pyrimidin-3-yl]prop-2-enoate] | 34.7 | 68 | 18 | –
Cc1cccnc1CN1CCN(c2ccn3nc(-c4cccc(C#N)c4)c(C#N)c3n2)CC1 [Example 59, 2-(3-Cyanophenyl)-5-[4-[(3-methyl-2-pyridyl)methyl]piperazin-1-yl]pyrazolo[1,5-a]pyrimidine-3-carbonitrile] | 17.5 | 3680 | 1030 | –
NC(=O)c1c(-c2ccco2)nn2ccc(N3CCN(CCF)CC3)nc12 [Example 39, 5-[4-(2-Fluoroethyl)piperazin-1-yl]-2-(2-furyl)pyrazolo[1,5-a]pyrimidine-3-carboxamide] | 38.9 | > 1000 | 2580 | –
CC(C)(O)CNC(=O)c1ccn2nc(-c3cccc(C#N)c3)c(-c3ccncn3)c2n1 [Example 13, 2-(3-Cyanophenyl)-N-(2-hydroxy-2-methyl-propyl)-3-pyrimidin-4-yl-pyrazolo[1,5-a]pyrimidine-5-carboxamide] | 67.1 | > 1000 | – | –
Nc1ccn2nc(-c3ccco3)c(Br)c2n1 [Example 50, 3-Bromo-2-(2-furyl)pyrazolo[1,5-a]pyrimidin-5-amine] | 151 | 3070 | 459 | –
CC(C)(O)CNC(=O)c1ccn2nc(-c3cccc(C#N)c3)c(C#N)c2n1 [Example 14, 3-Cyano-2-(3-cyanophenyl)-N-(2-hydroxy-2-methyl-propyl)pyrazolo[1,5-a]pyrimidine-5-carboxamide] | 218 | > 1000 | – | –
CC(C)(C)OC(=O)N1CCC(c2ccn3nc(-c4ccco4)c(C#N)c3n2)CC1 [Example 83, Tert-butyl 4-[3-cyano-2-(2-furyl)pyrazolo[1,5-a]pyrimidin-5-yl]piperidine-1-carboxylate] | 694 | > 1000 | – | –
N#Cc1c(-c2cccc(F)c2)nn2ccc(N3CCN(CCF)CC3)nc12 [Example 61, 5-[4-(2-Fluoroethyl)piperazin-1-yl]-2-(3-fluorophenyl)pyrazolo[1,5-a]pyrimidine-3-carbonitrile] | 37.9 | 4920 | 42 | –
N#Cc1c(-c2ccco2)nn2ccc(N3CCN(CCO)CC3)nc12 [Example 52, 2-(2-Furyl)-5-[4-(2-hydroxyethyl)piperazin-1-yl]pyrazolo[1,5-a]pyrimidine-3-carbonitrile] | 114 | > 1000 | 1150 | –
N#Cc1c(-c2cnco2)nn2ccc(N3CCN(CCF)CC3)nc12 [Example 62, 5-[4-(2-Fluoroethyl)piperazin-1-yl]-2-oxazol-5-yl-pyrazolo[1,5-a]pyrimidine-3-carbonitrile] | 365 | > 1000 | – | –
C[C@@H]1CN(c2ccn3nc(-c4ccco4)c(C#N)c3n2)CCN1 [Example 82, 2-(2-Furyl)-5-[(3R)-3-methylpiperazin-1-yl]pyrazolo[1,5-a]pyrimidine-3-carbonitrile hydrochloride] | 665 | > 1000 | 4330 | –
CN1CCC[C@@H]1CNc1ccn2nc(-c3ccco3)c(C#N)c2n1 [Example 81, 2-(2-Furyl)-5-[[(2R)-1-methylpyrrolidin-2-yl]methylamino]pyrazolo[1,5-a]pyrimidine-3-carbonitrile] | 202 | > 1000 | 1260 | –
Cc1cccnc1CN1CCN(c2ccn3nc(-c4cnco4)c(C#N)c3n2)CC1 [Example 65, 5-[4-[(3-Methyl-2-pyridyl)methyl]piperazin-1-yl]-2-oxazol-5-yl-pyrazolo[1,5-a]pyrimidine-3-carbonitrile] | 407 | > 1000 | 2480 | –
Ic1c(-c2ccco2)nn2ccc(NCc3ccccc3)nc12 [Example 77, N-Benzyl-2-(2-furyl)-3-iodo-pyrazolo[1,5-a]pyrimidin-5-amine] | 46.4 | 135 | 1430 | –
N#Cc1c(-c2ccc(F)cc2)nn2ccc(NCc3ccccc3)nc12 [Example 63, 5-(Benzylamino)-2-(4-fluorophenyl)pyrazolo[1,5-a]pyrimidine-3-carbonitrile] | 49.1 | 65 | 24 | –
O=C(NCc1ccccc1)c1ccn2nc(-c3ccco3)cc2n1 [Example 85, N-Benzyl-2-(2-furyl)pyrazolo[1,5-a]pyrimidine-5-carboxamide] | 493 | > 1000 | 366 | –

More lines, now with the values ahead:

Ki [1] [nM] | Ki [2] [nM] | Ki [3] [nM] | Ki [4] [nM] | Compound
127 | > 1000 | 1340 | – | CN(C)C1CN(c2ccn3nc(-c4ccco4)c(C(N)=O)c3n2)C1 [Example 39.1, 5-[3-(Dimethylamino)azetidin-1-yl]-2-(2-furyl)pyrazolo[1,5-a]pyrimidine-3-carboxamide]
49.3 | 7850 | 154 | – | N#Cc1c(-c2ccco2)nn2ccc(N3CCN(Cc4ccccn4)CC3)nc12 [Example 37.7]
– | – | – | 1570 | CCn1nc(C)cc1-c1c(-c2cccc(C#N)c2)nn2ccc(C(=O)NCC(C)(C)O)nc12 [Example 12.1, 2-(3-Cyanophenyl)-3-(2-ethyl-5-methyl-pyrazol-3-yl)-N-(2-hydroxy-2-methyl-propyl)pyrazolo[1,5-a]pyrimidine-5-carboxamide]
22.6 | > 1000 | 262 | – | N#Cc1c(-c2ccco2)nn2ccc(N3CCN(CCF)CC3)nc12 [Example 37.3]
54.9 | > 1000 | 104 | – | Cn1ccnc1CN1CCN(c2ccn3nc(-c4ccco4)c(C#N)c3n2)CC1 [Example 51.2, 2-(2-Furyl)-5-[4-[(1-methylimidazol-2-yl)methyl]piperazin-1-yl]pyrazolo [1,5-a]pyrimidine-3-carbonitrile]
706 | 2900 | 803 | – | Fc1cccc(-c2cc3nc(NCCN4Cc5ccccc5C4)ccn3n2)c1 [Example 66.4, 2-(3-Fluorophenyl)-N-(2-isoindolin-2-ylethyl)pyrazolo[1,5-a]pyrimidin-5-amine]
45.4 | > 1000 | 363 | – | N#Cc1c(-c2ccco2)nn2ccc(N3CCN(CCc4ccccc4)CC3)nc12 [Example 37.6]
16.3 | > 1000 | 213 | – | N#Cc1cccc(-c2nn3ccc(NCCN4CCN(c5ccccc5)CC4)nc3c2C#N)c1 [Example 87.1, 2-(3-Cyanophenyl)-5-[2-(4-phenylpiperazin-1-yl)ethylamino]pyrazolo [1,5-a]pyrimidine-3-carbonitrile]
19.2 | 1930 | 103 | – | CC(C)(C)OC(=O)N1CCC[C@@H]1CNc1ccn2nc(-c3ccco3)c(C#N)c2n1 [Example 37.2, tert-butyl (2R)-2-[[[3-cyano-2-(2-furyl)pyrazolo[1,5-a]pyrimidin-5-yl]amino]methyl]pyrrolidine-1-carboxylate]
62.4 | > 1000 | 426 | – | CN1CCN(c2ccn3nc(-c4ccco4)c(C#N)c3n2)CC1 [Example 37.8]
171 | 2720 | 2170 | – | C[C@H]1CN(c2ccn3nc(-c4ccco4)c(C#N)c3n2)CCN1C(=O)OC(C)(C)C [Example 37.11]
102 | 6180 | 856 | – | O=C(O)/C=C/c1c(-c2ccco2)nn2ccc(NCc3ccccc3)nc12 [Example 54.1, (E)-3-[5-(Benzylamino)-2-(2-furyl)pyrazolo[1,5-a]pyrimidin-3-yl]prop-2-enoic acid]
